According to publication PMC3498355, “Isomeric Mono-, Di-, and Tri-Bromobenzo-1H-Triazoles as Inhibitors of Human Protein Kinase CK2α” (PLoS ONE, 2012):
Where two headings read alike, the source gives them in different places.

Experiments:
protein kinase CK2 = conditions: cited from earlier work
[1] = set-up: method as in PMID 20734498, PMID 22632480; conditions: experimental, aqueous medium; cited from earlier work
[2] = set-up: method as in PMID 20734498, PMID 22632480; conditions: ab initio, calculated previously; cited from earlier work
[3] = set-up: method as in PMID 20734498, PMID 22632480; conditions: ab initio, calculated previously; cited from earlier work; remark: listed apart in the source
[4] = set-up: method as in PMID 20734498, PMID 22632480; conditions: cited from earlier work; for Cw (aqueous solubility): experimental
human CK2α = biological target: T1, human CK2α (Homo sapiens, UniProt P68400); assay: CK2α activity, P81 filter isotopic assay (inhibition, IC50); format: biochemical
T1 construct: CK2α was from KinaseDetect Aps; purchased KinaseDetect Aps
T1 sequence (P68400 whole entry): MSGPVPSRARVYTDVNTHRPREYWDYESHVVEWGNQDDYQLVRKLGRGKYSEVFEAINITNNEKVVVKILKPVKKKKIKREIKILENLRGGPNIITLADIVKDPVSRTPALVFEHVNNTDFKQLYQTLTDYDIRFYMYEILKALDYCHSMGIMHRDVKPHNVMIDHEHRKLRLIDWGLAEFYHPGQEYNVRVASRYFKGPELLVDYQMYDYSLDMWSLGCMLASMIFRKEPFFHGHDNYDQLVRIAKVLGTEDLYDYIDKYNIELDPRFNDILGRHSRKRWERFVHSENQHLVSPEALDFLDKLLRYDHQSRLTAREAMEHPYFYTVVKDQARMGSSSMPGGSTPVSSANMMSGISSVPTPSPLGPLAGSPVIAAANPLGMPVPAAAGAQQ
Experimental: CK2α activity was monitored using the P81 filter isotopic assay. The reaction mixture contained 20 mM Tris-HCl, pH 7.5, 20 mM MgCl2, 20 µM DTT, 20 µM peptide substrate, 0.5 mM β-glycerol, 0.1 mM EGTA, 10 µM ATP (200–300 cpm/pmol) and CK2α (0.4 µg/µl). The reaction was initiated with enzyme in a total volume of 50 µl, and incubated at 30°C for 20 min. 10 µl of a reaction mixture was spotted onto a P81 filter. The filter papers were washed 3× with 0.6% phosphoric acid, once with 95% ethanol, then counted in a scintillation counter (Canberra-Packard).
ATP, and Cmax and Cmin are the asymptotic values.

[5] = acidic solution, compared with neutral pH
[6] = 10 µM ATP, 20 µM peptide substrate, pH 7.5, 30°C, 20 min

Row | SMILES | pKa (triazole proton dissociation) [1] | ΔGdiss (free energy of proton dissociation) [2] | ΔGsolv (free energy of solvation of the anionic form) [3] | Cw (aqueous solubility) [4] | IC50 (human CK2α; [6]) | other results
1 | Clc1c(Cl)c(Cl)c2[nH]nnc2c1Cl [4,5,6,7-tetrachloro-benzotriazole] |  |  |  |  |  | activity against CK2 (in words) (protein kinase CK2): moderate activity
2 | Cc1c(C)c(C)c2[nH]nnc2c1C [4,5,6,7-tetramethyl-benzotriazole] |  |  |  |  |  | activity against CK2 (in words) (protein kinase CK2): low, but detectable, activity
3 | Brc1cc2[nH]nnc2c(Br)c1Br [4,5,6-Br3Bt] | 5.91 | 52.3 kcal/mol | -40.9 kcal/mol | 62.3 µM | 0.38 ± 0.02 µM | solubility (in words) [4, 5]: visibly higher; solubility (in words) ([4]; neutral pH): as low as for TBBt
4 | Brc1cc(Br)c2[nH]nnc2c1Br [4,5,7-Br3Bt] | 5.38 | 52.2 kcal/mol | -41.9 kcal/mol | 1040 µM | 5.8 ± 0.9 µM | 
5 | Brc1ccc2[nH]nnc2c1Br [4,5-Br2Bt] | 6.49 | 54.3 kcal/mol | -46.8 kcal/mol | 499 µM | 10.6 ± 0.9 µM | 
6 | Brc1cc(Br)c2nn[nH]c2c1 [4,6-Br2Bt] | 6.38 | 54.2 kcal/mol | -45.5 kcal/mol | 234 µM | 10 ± 2.2 µM | 
7 | Brc1ccc(Br)c2[nH]nnc12 [4,7-Br2Bt] | 5.84 | 53.4 kcal/mol | -48.0 kcal/mol | 1980 µM | 72 ± 11 µM | 
8 | Brc1cccc2[nH]nnc12 [4-BrBt] | 7.08 | 56.7 kcal/mol | -53.3 kcal/mol | 3870 µM | 119 ± 10 µM | 
9 | Brc1cc2nn[nH]c2cc1Br [5,6-Br2Bt] | 6.93 | 55.8 kcal/mol | -44.4 kcal/mol | 231 µM | 0.56 ± 0.02 µM | solubility (in words) [4, 5]: visibly higher; solubility (in words) ([4]; neutral pH): as low as for TBBt
10 | Brc1ccc2nn[nH]c2c1 [5-BrBt] | 7.55 | 58.1 kcal/mol | -50.7 kcal/mol | 2770 µM | 26 ± 3 µM | 
11 | c1ccc2[nH]nnc2c1 [Bt, benzotriazole, reference compound] | 8.56 | 59.5 kcal/mol | -59.9 kcal/mol | 196000 µM | > 2000 µM | inhibitory activity against CK2α (in words) (human CK2α): totally inactive; IC50 (human CK2α; as stated in legend of Figure 5): > 2000 µM
12 | Brc1c(Br)c(Br)c2[nH]nnc2c1Br [TBBt, 4,5,6,7-tetrabromobenzotriazole, reference compound] |  | 49.7 kcal/mol | -38.0 kcal/mol | 218 µM |  | solubility (in words) ([4]; neutral form of the ligand): very poorly soluble
13 | Brc1c(Br)c(Br)c2[nH]cnc2c1Br [TBBz, 4,5,6,7-tetrabromobenzimidazole] |  |  |  |  |  | Ki (protein kinase CK2): low µM and sub-µM range; activity relative to TBBt (fold less active) (protein kinase CK2): 4 fold
